Experimental data as given in PubChem BioAssay (NCI).
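In this assay, cells in 96-well plates receive the compound at five concentrations for 48 hours. Endpoints are linearly interpolated between the surrounding concentrations. GI50: concentration for 50% inhibition of growth. At the TGI there is no net growth.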

Experiments:
Experiment in all cases: NCI anticancer screen, dose series, 48 h
HL-60(TB) leukemia = system: HL-60(TB) leukemia
HT29 colon = system: HT29 colon
COLO 205 colon = system: COLO 205 colon
CAKI-1 renal = system: CAKI-1 renal
786-0 renal = system: 786-0 renal
OVCAR-4 ovarian = system: OVCAR-4 ovarian
SR leukemia = system: SR leukemia
MCF7 breast = system: MCF7 breast
SF-268 CNS = system: SF-268 CNS
SF-539 CNS = system: SF-539 CNS
UO-31 renal = system: UO-31 renal
RPMI-8226 leukemia = system: RPMI-8226 leukemia
OVCAR-5 ovarian = system: OVCAR-5 ovarian
TK-10 renal = system: TK-10 renal
CCRF-CEM leukemia = system: CCRF-CEM leukemia
SN12C renal = system: SN12C renal
OVCAR-3 ovarian = system: OVCAR-3 ovarian
HCC-2998 colon = system: HCC-2998 colon
M14 melanoma = system: M14 melanoma
BT-549 breast = system: BT-549 breast
ACHN renal = system: ACHN renal
MALME-3M melanoma = system: MALME-3M melanoma
OVCAR-8 ovarian = system: OVCAR-8 ovarian
U251 CNS = system: U251 CNS
SK-MEL-2 melanoma = system: SK-MEL-2 melanoma
A549 NSCLC = system: A549 NSCLC
NCI-H226 lung = system: NCI-H226 lung
UACC-257 melanoma = system: UACC-257 melanoma
RXF 393 renal = system: RXF 393 renal
IGROV1 ovarian = system: IGROV1 ovarian
SW-620 colon = system: SW-620 colon
LOX IMVI melanoma = system: LOX IMVI melanoma
NCI-H522 lung = system: NCI-H522 lung
DU-145 prostate = system: DU-145 prostate
UACC-62 melanoma = system: UACC-62 melanoma
HOP-62 NSCLC = system: HOP-62 NSCLC
NCI-H460 lung = system: NCI-H460 lung
NCI-H23 lung = system: NCI-H23 lung
HOP-92 NSCLC = system: HOP-92 NSCLC
A498 renal = system: A498 renal
T-47D breast = system: T-47D breast
NCI/ADR-RES ovarian = system: NCI/ADR-RES ovarian
SK-OV-3 ovarian = system: SK-OV-3 ovarian
SF-295 CNS = system: SF-295 CNS
SK-MEL-5 melanoma = system: SK-MEL-5 melanoma
SNB-19 CNS = system: SNB-19 CNS
PC-3 prostate = system: PC-3 prostate
EKVX NSCLC = system: EKVX NSCLC
HS 578T breast = system: HS 578T breast
K-562 leukemia = system: K-562 leukemia
MDA-MB-231 breast = system: MDA-MB-231 breast
SNB-75 CNS = system: SNB-75 CNS
KM12 colon = system: KM12 colon
HCT-116 colon = system: HCT-116 colon
MDA-MB-435 = system: MDA-MB-435
HCT-15 colon = system: HCT-15 colon
SK-MEL-28 melanoma = system: SK-MEL-28 melanoma
MOLT-4 leukemia = system: MOLT-4 leukemia

C=C(C)[C@@H]1CC[C@]2(CO)CC[C@]3(C)[C@H](CC[C@@H]4[C@@]5(C)C=C(C#N)C(=O)C(C)(C)[C@@H]5CC[C@]43C)[C@@H]12
GI50 (HL-60(TB) leukemia): 0.471 µM | TGI (HL-60(TB) leukemia): 5.5 µM | GI50 (HT29 colon): 1.16 µM | TGI (HT29 colon): 4.76 µM | GI50 (COLO 205 colon): 1.38 µM | TGI (COLO 205 colon): 2.72 µM | GI50 (CAKI-1 renal): 2.82 µM | TGI (CAKI-1 renal): 14.4 µM | GI50 (786-0 renal): 1.92 µM | TGI (786-0 renal): 3.98 µM | GI50 (OVCAR-4 ovarian): 0.769 µM | TGI (OVCAR-4 ovarian): 5.11 µM | GI50 (SR leukemia): 1.53 µM | TGI (SR leukemia): 6.01 µM | GI50 (MCF7 breast): 0.34 µM | TGI (MCF7 breast): 7.66 µM | GI50 (SF-268 CNS): 1.46 µM | TGI (SF-268 CNS): 4.78 µM | GI50 (SF-539 CNS): 2.61 µM | TGI (SF-539 CNS): 8.34 µM | GI50 (UO-31 renal): 1.05 µM | TGI (UO-31 renal): 2.77 µM | GI50 (RPMI-8226 leukemia): 0.809 µM | TGI (RPMI-8226 leukemia): 3.86 µM | GI50 (OVCAR-5 ovarian): 2.13 µM | TGI (OVCAR-5 ovarian): 5.75 µM | GI50 (TK-10 renal): 2.09 µM | TGI (TK-10 renal): 6.06 µM | GI50 (CCRF-CEM leukemia): 2.11 µM | TGI (CCRF-CEM leukemia): 8.7 µM | GI50 (SN12C renal): 1.17 µM | TGI (SN12C renal): 4.27 µM | GI50 (OVCAR-3 ovarian): 1.27 µM | TGI (OVCAR-3 ovarian): 2.73 µM | GI50 (HCC-2998 colon): 2.03 µM | TGI (HCC-2998 colon): 4.22 µM | GI50 (M14 melanoma): 1.55 µM | TGI (M14 melanoma): 3.78 µM | GI50 (BT-549 breast): 2.13 µM | TGI (BT-549 breast): 6.18 µM | GI50 (ACHN renal): 1.72 µM | TGI (ACHN renal): 4.77 µM | GI50 (MALME-3M melanoma): 1.4 µM | TGI (MALME-3M melanoma): 3.82 µM | GI50 (OVCAR-8 ovarian): 1.88 µM | TGI (OVCAR-8 ovarian): 5.24 µM | GI50 (U251 CNS): 1.36 µM | TGI (U251 CNS): 2.8 µM | GI50 (SK-MEL-2 melanoma): 1.91 µM | TGI (SK-MEL-2 melanoma): 4.59 µM | GI50 (A549 NSCLC): 1.56 µM | TGI (A549 NSCLC): 3.5 µM | GI50 (NCI-H226 lung): 2.39 µM | TGI (NCI-H226 lung): 5.49 µM | GI50 (UACC-257 melanoma): 1.29 µM | TGI (UACC-257 melanoma): 3.04 µM | GI50 (RXF 393 renal): 1.13 µM | TGI (RXF 393 renal): 2.76 µM | GI50 (IGROV1 ovarian): 0.684 µM | TGI (IGROV1 ovarian): 4.65 µM | GI50 (SW-620 colon): 2.24 µM | TGI (SW-620 colon): 5.12 µM | GI50 (LOX IMVI melanoma): 1.18 µM | TGI (LOX IMVI melanoma): 2.68 µM | GI50 (NCI-H522 lung): 1.9 µM | TGI (NCI-H522 lung): 6.58 µM | GI50 (DU-145 prostate): 1.97 µM | TGI (DU-145 prostate): 5.75 µM | GI50 (UACC-62 melanoma): 0.72 µM | TGI (UACC-62 melanoma): 2.44 µM | GI50 (HOP-62 NSCLC): 1.74 µM | TGI (HOP-62 NSCLC): 3.85 µM | GI50 (NCI-H460 lung): 1.37 µM | TGI (NCI-H460 lung): 5.17 µM | GI50 (NCI-H23 lung): 2 µM | TGI (NCI-H23 lung): 6.05 µM | GI50 (HOP-92 NSCLC): 2.22 µM | TGI (HOP-92 NSCLC): 5.15 µM | GI50 (A498 renal): 1.37 µM | TGI (A498 renal): 2.99 µM | GI50 (T-47D breast): 1.12 µM | TGI (T-47D breast): 5.79 µM | GI50 (NCI/ADR-RES ovarian): 1.81 µM | TGI (NCI/ADR-RES ovarian): 5.04 µM | GI50 (SK-OV-3 ovarian): 2.72 µM | TGI (SK-OV-3 ovarian): 6.12 µM | GI50 (SF-295 CNS): 1.73 µM | TGI (SF-295 CNS): 3.96 µM | GI50 (SK-MEL-5 melanoma): 1.2 µM | TGI (SK-MEL-5 melanoma): 2.52 µM | GI50 (SNB-19 CNS): 1.58 µM | TGI (SNB-19 CNS): 4.08 µM | GI50 (PC-3 prostate): 1.57 µM | TGI (PC-3 prostate): 5.42 µM | GI50 (EKVX NSCLC): 1.63 µM | TGI (EKVX NSCLC): 4.61 µM | GI50 (HS 578T breast): 1.89 µM | TGI (HS 578T breast): 6.84 µM | GI50 (K-562 leukemia): 2.2 µM | TGI (K-562 leukemia): > 100 µM | GI50 (MDA-MB-231 breast): 1.56 µM | TGI (MDA-MB-231 breast): 4.82 µM | GI50 (SNB-75 CNS): 1.04 µM | TGI (SNB-75 CNS): 3.39 µM

O=C(Nc1nnc(-c2ccc(Cl)cc2)o1)C(SC(=S)N1CCOCC1)c1ccccc1 (stereo not drawn)
TGI (KM12 colon): > 100 µM | TGI (HL-60(TB) leukemia): 25.7 µM | TGI (HT29 colon): 78.3 µM | TGI (COLO 205 colon): 28.8 µM | TGI (CAKI-1 renal): > 100 µM | TGI (786-0 renal): > 100 µM | TGI (OVCAR-4 ovarian): > 100 µM | TGI (HCT-116 colon): 26.5 µM | TGI (SR leukemia): > 100 µM | TGI (MCF7 breast): > 100 µM | TGI (SF-539 CNS): 34.1 µM | TGI (UO-31 renal): 30 µM | TGI (RPMI-8226 leukemia): > 100 µM | TGI (OVCAR-5 ovarian): 88.2 µM | TGI (TK-10 renal): > 100 µM | TGI (CCRF-CEM leukemia): > 100 µM | TGI (SN12C renal): 42.7 µM | TGI (OVCAR-3 ovarian): 30.2 µM | TGI (M14 melanoma): > 100 µM | TGI (BT-549 breast): 62.5 µM | TGI (ACHN renal): 83.5 µM | TGI (MALME-3M melanoma): > 100 µM | TGI (OVCAR-8 ovarian): > 100 µM | TGI (U251 CNS): 77.2 µM | TGI (SK-MEL-2 melanoma): 44.7 µM | TGI (A549 NSCLC): 81.3 µM | TGI (NCI-H226 lung): 56.4 µM | TGI (UACC-257 melanoma): > 100 µM | TGI (RXF 393 renal): > 100 µM | TGI (IGROV1 ovarian): > 100 µM | TGI (SW-620 colon): > 100 µM | TGI (LOX IMVI melanoma): 48.2 µM | TGI (NCI-H522 lung): 48.9 µM | TGI (DU-145 prostate): > 100 µM | TGI (MDA-MB-435): > 100 µM | TGI (HOP-62 NSCLC): > 100 µM | TGI (NCI-H460 lung): 53.3 µM | TGI (HCT-15 colon): > 100 µM | TGI (SK-MEL-28 melanoma): > 100 µM | TGI (NCI-H23 lung): 70.6 µM | TGI (A498 renal): 56.5 µM | TGI (T-47D breast): > 100 µM | TGI (NCI/ADR-RES ovarian): 90.7 µM | TGI (SK-OV-3 ovarian): > 100 µM | TGI (MOLT-4 leukemia): > 100 µM | TGI (SF-295 CNS): 94.4 µM | TGI (SK-MEL-5 melanoma): 26.6 µM | TGI (SNB-19 CNS): > 100 µM | TGI (PC-3 prostate): 55.1 µM | TGI (EKVX NSCLC): 59.7 µM | TGI (HS 578T breast): > 100 µM | TGI (K-562 leukemia): > 100 µM | TGI (MDA-MB-231 breast): > 100 µM | TGI (SNB-75 CNS): > 100 µM
